How the values were obtained:
[1] = Inhibition of mouse GAT2 expressed in HEK293 cells assessed as reduction in [3H]GABA uptake preincubated for 25 mins followed by [3H]GABA addition and measured after 10 mins by liquid scintillation counting method
[2] = Inhibition of mouse GAT3 expressed in HEK293 cells assessed as reduction in [3H]GABA uptake preincubated for 25 mins followed by [3H]GABA addition and measured after 4 mins by liquid scintillation counting method
[3] = Non-competitive inhibition of human GAT1 expressed in COS cells assessed as reduction in [2H6]GABA uptake by measuring [2H6]GABA Kd(app) at 1 uM preincubated for 25 mins followed by [2H6]GABA addition and measured after 4 mins by liquid scintillation counting method (Rvb = 28.3 +/- 1.5 nM)
[4] = Non-competitive inhibition of human GAT1 expressed in COS cells assessed as reduction in [2H6]GABA uptake by measuring [2H6]GABA Kd(app) at 10 uM preincubated for 25 mins followed by [2H6]GABA addition and measured after 4 mins by liquid scintillation counting method (Rvb = 28.3 +/- 1.5 nM)

| IC50 [1] [µM] | IC50 [2] [µM] | Kd [3] [µM] | Kd [4] [µM] | Compound |
| --- | --- | --- | --- | --- |
| 53.7 | 58.9 |  |  | O=C(O)[C@H]1CNC[C@@H](CCN/N=C/c2ccc(-c3ccc(C(F)(F)F)cc3Cl)o2)C1 |
|  | 33.1 | 0.056 | 0.112 | O=C(O)[C@H]1CNC[C@@H](CN/N=C/c2ccc(-c3cccc4ccccc34)o2)C1 |
| 53.7 | 25.7 |  |  | O=C(O)[C@H]1CNC[C@@H](CCN/N=C/c2ccc(-c3ccc(Cl)cc3Cl)o2)C1 |
|  |  | 0.058 | 0.154 | O=C(O)[C@H]1CNC[C@@H](CN/N=C/c2ccc(-c3cc(C(F)(F)F)cc(C(F)(F)F)c3)o2)C1 |
